Results published in the NIST ThermoML archive (doi:10.1021/acs.jced.7b00783).
± gives the expanded uncertainty stated by the source.

Settings: Liquid, Ebulliometric method (Recirculating still)

vapor or sublimation pressure (351.45 K) | SMILES | vapor or sublimation pressure (352.72 K)
– | CCC(C)=O [butanone] | 101.3 ± 0.46 kPa
101.3 ± 0.46 kPa | CCO [ethanol] | –
